Assay results as given in PMC3648344 (BMC Structural Biology, 2013).

Molecular target: T1, ypMnmC (Yersinia pestis, UniProt Q8ZD36)
T1 construct: gene mnmC
Conditions: selenomethionyl protein; co-purified FAD, none added; MnmC1 domain site; also in 3SGL with SAM

T1 sequence (Q8ZD36 whole entry, looked up): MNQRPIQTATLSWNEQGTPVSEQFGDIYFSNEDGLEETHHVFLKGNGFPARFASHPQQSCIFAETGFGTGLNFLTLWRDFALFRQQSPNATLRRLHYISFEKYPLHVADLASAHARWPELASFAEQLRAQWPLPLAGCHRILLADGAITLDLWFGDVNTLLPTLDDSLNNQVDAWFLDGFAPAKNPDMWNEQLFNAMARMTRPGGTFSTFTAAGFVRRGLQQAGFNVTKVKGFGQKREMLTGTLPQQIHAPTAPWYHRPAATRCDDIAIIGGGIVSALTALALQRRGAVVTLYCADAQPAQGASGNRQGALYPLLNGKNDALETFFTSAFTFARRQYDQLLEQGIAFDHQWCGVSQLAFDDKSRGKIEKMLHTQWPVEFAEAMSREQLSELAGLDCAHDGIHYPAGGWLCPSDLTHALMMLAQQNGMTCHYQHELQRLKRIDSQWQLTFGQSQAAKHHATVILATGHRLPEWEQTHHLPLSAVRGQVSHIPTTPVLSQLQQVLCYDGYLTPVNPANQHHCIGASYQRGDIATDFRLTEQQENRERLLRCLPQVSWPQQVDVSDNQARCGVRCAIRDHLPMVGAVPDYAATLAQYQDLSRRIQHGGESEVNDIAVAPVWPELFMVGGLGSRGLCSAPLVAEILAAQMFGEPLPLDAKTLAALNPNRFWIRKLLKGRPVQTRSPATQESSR

Cc1cc2nc3c(=O)[nH]c(=O)nc-3n(C[C@H](O)[C@H](O)[C@H](O)COP(=O)(O)OP(=O)(O)OC[C@H]3O[C@@H](n4cnc5c(N)ncnc54)[C@H](O)[C@@H]3O)c2cc1C [FAD]
X-ray crystal structure, 2.30 Å: All three MnmC structures unambiguously exhibited bound FAD (Figure 4A)
